Experimental data as given in patent US10328051B2, “Proline or proline derivatives for the treatment of dementia” (priority 2014, dated 2019).
“Also recorded” adds a separate entry of the source.

How the values were obtained:
Assay type in all cases: in vivo, human
[1] = tested on: patients with mild or moderate Alzheimer's disease and Dementia; assay: Physical and cognitive conditions and Quality of Life questionnaire in patients with mild and moderate Alzheimer's disease (Example 13)
Description: Example 13—Physical, and Cognitive Conditions—Alzheimer—Dementia Measure and Quality of Life (QoL) (FIGS. 13.1, 13.2, 13.3)
According to the ICH-GCP requirements for assessment of the Quality of Life (QoL) the validated questionnaire related to the disease e.g. cancer have been administered in the Phase II clinical studies: IPSS-A04, according to the example 12.1 in this invention.
Additional developed modules to these questionnaire provided greater details on the particular aspects of quality of life for those patients who participated in these clinical studies and diagnosed with mild and moderate Alzheimer's disease based on the presence of neuropsychiatric symptoms.
Diagnosis begun with a thorough physical exam and complete medical history including cerebrovascular disease and supplemental information from family members. Simple tests of mental function, including word recall, object naming, and number symbol marching, were used to track changes in the patient's cognitive ability. Ruling out depression was part of the diagnosis. Eight (8) patients over the age of 65 years met these criteria and have been selected for the assessment of CHP effects on the quality of life according to the items mentioned below including the cognitive status.
The administration of intravenous (iv) and oral CHP as monotherapy has been scheduled according to examples 12.1 in this invention in the patient's group G2—in study IPSS-A04.
The assessment of the QoL, physical, and cognitive conditions—Alzheimer-Dementia has been completed by the patients/care providers in the following intervals (FIGS. 13.1-13.3):
Pre-dose: Prior to the start of treatment with CHP as monotherapy
Start and completion of treatment with CHP: The questionnaire has been completed every 4 weeks after the start of treatment (Week 4, 8, 12, 16, 20, 24) and 4 weeks upon the completion of the treatment with CHP as monotherapy. A scale value is given for each response that reflects a good quality of life. […] A higher score reflects a higher quality of life. The 5 domains of Quality of Life—Alzheimer's Disease-Dementia included are: 1. Enjoyment of activities, 2. Feelings and mood, 3. Awareness of self, 4. Social Interactions, 5. Illness global QoL.
The following modified QLQ-C30 Version 1.0 has been used for the recording and assessment of the patient's conditions prior to and after the treatment with CHP.

[2] = tested on: Alpha Glutathione S-Transferase (α-GST); assay: Measurement of α-Glutathione-S-Transferase following multiple dose administration of CHP (Study 0202-71); details: healthy volunteers
Description: Example 6—Measurement of α-Glutathione-S-Transferase Following Multiple Dose Administration of CHP (Study 0202-71)—(FIG. 7)
Study title: Measurement of α-Glutathione-S-Transferase following multiple dose administration of CHP (Study 0202-71)
12 healthy Caucasian males were recruited (age: 18-45 years). Multiple doses of CHP were orally administered: • 4×2.0 g CHP per day, for 14 consecutive days (total daily dose=8.0 g CHP) • 4×3.0 g CHP per day, for 14 consecutive days (total daily dose=12.0 g CHP)
To determine the effect of CHP on the blood concentration of Alpha Glutathione S-Transferase (α-GST) following the administration of: • 4×2.0 g CHP per day, for 14 consecutive days (total daily dose=8.0 g CHP) • 4×3.0 g CHP per day, for 14 consecutive days (total daily dose=12.0 g CHP)
The P-value obtained was 0.0017, indicating a 99.8% that the decreased observed was not the result of chance. A one-sample two-sided t-test was used, using the data from day 0-day 17.

[3] = tested on: patients suffering from cancer, chronic liver diseases (liver fibrosis) and mild Alzheimer's disease/dementia; assay: Phase II clinical studies (Example 12.1-12.4): safety, toxicity (CTC), Quality of Life, immune functions
Description: According to the example No. 12 in this invention, the safety, efficacy and Quality of Life (QoL) of CHP as monotherapy have been investigated in patients suffering from cancer, chronic liver diseases (liver fibrosis) and mild Alzheimer's disease/dementia The following four (4) ICH-GCP
Title: Phase II—CHP as antitumour agent in patients with resected colorectal cancer and liver metastasis; 60 patients—Study IPSS-A04 (Example 12.1).
Title: Phase II—CHP in patients with locally advanced or metastatic pancreatic cancer—14 patients Study IPSS B013 (Example 12.2).
Title: Evaluation of safety and efficacy of CHP in patients with urogenital Cancer—25 patients—Study IPSS-D002 (Example 12.3).
Title: Phase II—CHP in patients with chronic viral hepatitis, chronic alcohol liver diseases without cirrhosis or primary sclerosing cholangitis 45 patients—Study IPSS-B025 (Example 12.4).
According to the examples in this invention, the objectives of these studies were: • Assessment the efficacy and safety of CHP as monotherapy have been investigated in patients suffering from cancer, chronic liver diseases (liver fibrosis) and mild Alzheimer's disease/dementia.
The following validated evaluation systems have been used: • 1. Evaluation of Quality of Life as measured by the FACT questionnaires. • 2. Evaluation of the toxicity and safety of CHP treatment as measured by the Common Toxicity Criteria CTC. • Subjective assessments mild Alzheimer' patients: Overall physical conditions, Cognitive conditions, Quality of Life (QoL)
According to the study protocols for the performance of these studies, oral and intravenous CHP as monotherapy have been administered to the patients at high doses e.g. 8 gram/day for approximately 180 consecutive days. A number of patients have received the medication for approximately 18 months as mono therapy.

Collagen IV = assay: Measurement of Collagen-IV following multiple dose administration of CHP (Study 0202-71); details: healthy volunteers, multiple oral doses of CHP for 14 days; P-value 0.0016 (t-test), 0.0047 (Wilcoxon-test)
Description: Example 7—Study Title: Measurement of Collagen-IV Following Multiple Dose Administration of CHP-Study 0202-71—(FIG. 8)
Using a one-sample two-sided t-test, a P-value of 0.0016 was obtained, indicating a 99.8% that the decreased observed was not the result of chance. Using a one-sample two-sided Wilcoxon-test, a P-value of 0.0047 was obtained, indicating a 99.5% that the decreased observed was not the result of chance.

[4] = after completion of treatment, 8 patients, pre dose 0
[5] = after completion of treatment, 8 patients, pre dose 3
[6] = after completion of treatment, 8 patients, pre-dose 0

O=C(O)[C@@H]1C[C@H](O)CN1 [CHP, cis-4-hydroxy-L-proline]
Overall Physical Condition: number of patients rating 5 [1, 4]: 5
Overall Physical Condition: number of patients rating 6 [1, 4]: 1
Overall Physical Condition: number of patients rating 7 [1, 4]: 0
Overall Quality of Life (QoL): number of patients rating 4 [1, 4]: 3
Overall Quality of Life (QoL): number of patients rating 5 [1, 4]: 3
Overall Quality of Life (QoL): number of patients rating 6 [1, 4]: 2
Overall Quality of Life (QoL): number of patients rating 7 [1, 4]: 0
Overall Physical Condition: number of patients rating 3 [1, 5]: 1
Overall Physical Condition: number of patients rating 4 [1, 5]: 1
Overall Quality of Life (QoL): number of patients rating 3 [1, 5]: 0
Overall Cognitive Conditions: number of patients rating 5 [1, 6]: 3
Overall Cognitive Conditions: number of patients rating 6 [1, 6]: 1
Overall Cognitive Conditions: number of patients rating 7 [1, 6]: 0
Overall Cognitive Conditions: number of patients rating 4 ([1]; after completion of treatment, 8 patients, pre-dose 1): 3
Overall Cognitive Conditions: number of patients rating 3 ([1]; after completion of treatment, 8 patients, pre-dose 3): 1
Overall Physical Condition: number of patients rating 2 ([1]; after completion of treatment, scale 1 = Very poor 7 = Excellent, 8 patients, pre dose 2): 0
Overall Quality of Life (QoL): number of patients rating 2 ([1]; after completion of treatment, scale 1 = Very poor 7 = Excellent, 8 patients, pre dose 5): 0
Overall Cognitive Conditions: number of patients rating 2 ([1]; after completion of treatment, scale 1 = Very poor 7 = Excellent, 8 patients, pre-dose 4): 0
Cognitive, physical, emotional conditions and quality of life in comparison to status prior to the start of the treatment ([1]; oral and/or intravenous CHP monotherapy, 90-540 consecutive days, 2-12 gram per day, mild or moderate Alzheimer's disease and dementia): significant improvement
Adverse events ([1]; patients with mild or moderate Alzheimer's disease): Only mild adverse events
Liver cell damage ([2]; multiple oral doses of CHP for 14 days): no effect of liver cell damage
α-GST levels in blood ([2]; oral 4×2.0 g or 4×3.0 g CHP per day for 14 days, P-value 0.0017, one-sample two-sided t-test, day 0-day 17): inhibits significantly; also recorded: highly significant
Immunological activities ([3]; Examples 12.1-12.4): increase of the immunological activities of interleukin-2, Interleukin-12, and Interferon-alpha
Patients' Quality of Life (QoL questionnaires) ([3]; Phase II clinical studies): improved drastically
Toxicity and safety as measured by the Common Toxicity Criteria CTC ([3]; Phase II clinical studies): has not cause any nephrotoxicity, neurotoxicity, hepatotoxicity, cardiotoxicity and/or laboratory abnormalities
Side effects observed ([3]; Phase II clinical studies, CHP monotherapy): Only mild side effects such as nausea and/or vomiting
Tolerability ([3]; all clinical studies, mostly patients over 60 years, e.g. 8 gram/day for approximately 180 consecutive days, oral and intravenous monotherapy): excellent tolerability
Drug-drug interactions on co-administration with drugs used by the patients ([3]; mostly elderly patients): no drug-drug interactions have been observed
Collagen IV levels in blood (Collagen IV): inhibits significantly
